# Measured values: ChEMBL document CHEMBL1131085, “Structure-activity relationships for a series of bis(phenylalkyl)amines: potent subtype-selective inhibitors of N-methyl-D-aspartate receptors” (J Med Chem, 1998)
# Assays:
# Assay type in all cases: cell-based, Oocyte
# [1] = biological target: Glutamate NMDA receptor; Grin1/Grin2a (Rattus norvegicus, UniProt P35439+Q00959); test: Functional antagonism by electrical assays in Xenopus oocytes expressing 1A/2A NMDA receptor subtype
# [2] = biological target: Glutamate NMDA receptor; Grin1/Grin2b (Rattus norvegicus, UniProt P35439+Q00960); test: Functional antagonism by electrical assays in Xenopus oocytes expressing the 1A/2B NMDA receptor
# Chain of Glutamate NMDA receptor; Grin1/Grin2b (Q00960 whole entry, other chains not shown): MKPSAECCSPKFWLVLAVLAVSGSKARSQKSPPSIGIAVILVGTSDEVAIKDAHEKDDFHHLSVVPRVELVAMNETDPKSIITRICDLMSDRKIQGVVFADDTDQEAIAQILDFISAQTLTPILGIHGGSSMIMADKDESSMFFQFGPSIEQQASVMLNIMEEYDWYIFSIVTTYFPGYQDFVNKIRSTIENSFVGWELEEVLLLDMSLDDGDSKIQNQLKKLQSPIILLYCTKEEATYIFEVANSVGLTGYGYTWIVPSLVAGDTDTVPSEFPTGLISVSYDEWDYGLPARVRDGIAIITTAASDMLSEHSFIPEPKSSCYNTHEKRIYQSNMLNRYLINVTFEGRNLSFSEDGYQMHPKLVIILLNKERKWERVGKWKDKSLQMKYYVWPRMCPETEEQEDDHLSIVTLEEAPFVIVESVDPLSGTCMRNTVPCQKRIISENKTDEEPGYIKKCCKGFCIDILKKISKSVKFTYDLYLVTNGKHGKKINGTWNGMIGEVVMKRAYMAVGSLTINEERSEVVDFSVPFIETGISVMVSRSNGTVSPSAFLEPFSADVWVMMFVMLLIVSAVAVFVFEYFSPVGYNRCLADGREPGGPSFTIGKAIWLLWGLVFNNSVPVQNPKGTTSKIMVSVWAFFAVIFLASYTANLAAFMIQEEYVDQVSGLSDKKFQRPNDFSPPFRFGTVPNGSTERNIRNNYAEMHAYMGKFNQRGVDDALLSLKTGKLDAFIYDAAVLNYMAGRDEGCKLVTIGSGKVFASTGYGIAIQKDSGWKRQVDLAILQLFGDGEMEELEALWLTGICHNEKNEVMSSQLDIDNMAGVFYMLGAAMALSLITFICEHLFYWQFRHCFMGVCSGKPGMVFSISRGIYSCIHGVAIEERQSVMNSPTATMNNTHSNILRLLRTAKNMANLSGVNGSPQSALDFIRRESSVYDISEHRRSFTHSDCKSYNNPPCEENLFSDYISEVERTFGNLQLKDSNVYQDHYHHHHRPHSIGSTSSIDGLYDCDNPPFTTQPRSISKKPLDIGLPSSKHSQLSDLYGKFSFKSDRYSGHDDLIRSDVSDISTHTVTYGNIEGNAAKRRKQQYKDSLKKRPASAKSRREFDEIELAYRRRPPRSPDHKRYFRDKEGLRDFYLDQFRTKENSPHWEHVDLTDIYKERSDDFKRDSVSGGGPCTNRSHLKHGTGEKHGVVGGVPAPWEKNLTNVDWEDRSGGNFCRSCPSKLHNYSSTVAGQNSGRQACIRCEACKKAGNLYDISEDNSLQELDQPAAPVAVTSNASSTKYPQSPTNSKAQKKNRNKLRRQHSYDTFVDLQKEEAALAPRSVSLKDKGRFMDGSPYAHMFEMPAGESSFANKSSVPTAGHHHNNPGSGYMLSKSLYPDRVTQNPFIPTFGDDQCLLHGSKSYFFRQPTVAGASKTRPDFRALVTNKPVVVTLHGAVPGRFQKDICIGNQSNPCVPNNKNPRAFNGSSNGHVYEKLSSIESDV
# [3] = biological target: Glutamate NMDA receptor; Grin1/Grin2c (Rattus norvegicus, UniProt P35439+Q00961); test: Functional antagonism by electrical assays in Xenopus oocytes expressing the 1A/2C NMDA receptor
# Chain of Glutamate NMDA receptor; Grin1/Grin2c (Q00961 whole entry, other chains not shown): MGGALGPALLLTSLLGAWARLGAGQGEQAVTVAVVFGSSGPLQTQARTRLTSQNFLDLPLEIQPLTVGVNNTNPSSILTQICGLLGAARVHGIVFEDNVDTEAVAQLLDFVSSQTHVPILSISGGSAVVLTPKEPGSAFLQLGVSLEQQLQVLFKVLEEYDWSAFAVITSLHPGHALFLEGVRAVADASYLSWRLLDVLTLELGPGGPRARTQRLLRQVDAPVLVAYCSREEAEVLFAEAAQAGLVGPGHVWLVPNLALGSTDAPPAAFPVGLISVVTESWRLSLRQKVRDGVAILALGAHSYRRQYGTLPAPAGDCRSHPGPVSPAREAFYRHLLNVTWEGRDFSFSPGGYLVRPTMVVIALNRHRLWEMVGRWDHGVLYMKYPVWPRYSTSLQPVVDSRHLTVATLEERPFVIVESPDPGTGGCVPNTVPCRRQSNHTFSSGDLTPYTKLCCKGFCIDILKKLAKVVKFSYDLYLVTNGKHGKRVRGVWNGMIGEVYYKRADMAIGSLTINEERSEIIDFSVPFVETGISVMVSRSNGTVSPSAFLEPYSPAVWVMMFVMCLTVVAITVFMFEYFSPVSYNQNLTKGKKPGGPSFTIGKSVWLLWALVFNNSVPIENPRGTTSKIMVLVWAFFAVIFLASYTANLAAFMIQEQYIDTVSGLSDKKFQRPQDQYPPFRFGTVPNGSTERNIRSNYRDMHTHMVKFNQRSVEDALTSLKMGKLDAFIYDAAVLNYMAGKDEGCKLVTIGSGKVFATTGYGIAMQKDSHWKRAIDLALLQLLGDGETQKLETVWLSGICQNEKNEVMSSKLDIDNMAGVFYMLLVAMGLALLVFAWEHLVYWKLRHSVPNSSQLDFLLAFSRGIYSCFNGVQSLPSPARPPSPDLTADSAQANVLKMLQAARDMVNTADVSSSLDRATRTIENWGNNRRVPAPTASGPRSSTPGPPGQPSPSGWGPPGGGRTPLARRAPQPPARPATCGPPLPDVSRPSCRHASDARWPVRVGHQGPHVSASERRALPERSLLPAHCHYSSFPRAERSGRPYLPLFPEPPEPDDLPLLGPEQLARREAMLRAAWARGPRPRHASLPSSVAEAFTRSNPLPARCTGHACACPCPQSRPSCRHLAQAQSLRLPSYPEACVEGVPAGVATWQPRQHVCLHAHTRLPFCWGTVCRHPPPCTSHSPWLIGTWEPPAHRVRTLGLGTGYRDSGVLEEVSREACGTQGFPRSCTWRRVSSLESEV
# Chain of Glutamate NMDA receptor; Grin1/Grin2a (Q00959 whole entry, other chains not shown): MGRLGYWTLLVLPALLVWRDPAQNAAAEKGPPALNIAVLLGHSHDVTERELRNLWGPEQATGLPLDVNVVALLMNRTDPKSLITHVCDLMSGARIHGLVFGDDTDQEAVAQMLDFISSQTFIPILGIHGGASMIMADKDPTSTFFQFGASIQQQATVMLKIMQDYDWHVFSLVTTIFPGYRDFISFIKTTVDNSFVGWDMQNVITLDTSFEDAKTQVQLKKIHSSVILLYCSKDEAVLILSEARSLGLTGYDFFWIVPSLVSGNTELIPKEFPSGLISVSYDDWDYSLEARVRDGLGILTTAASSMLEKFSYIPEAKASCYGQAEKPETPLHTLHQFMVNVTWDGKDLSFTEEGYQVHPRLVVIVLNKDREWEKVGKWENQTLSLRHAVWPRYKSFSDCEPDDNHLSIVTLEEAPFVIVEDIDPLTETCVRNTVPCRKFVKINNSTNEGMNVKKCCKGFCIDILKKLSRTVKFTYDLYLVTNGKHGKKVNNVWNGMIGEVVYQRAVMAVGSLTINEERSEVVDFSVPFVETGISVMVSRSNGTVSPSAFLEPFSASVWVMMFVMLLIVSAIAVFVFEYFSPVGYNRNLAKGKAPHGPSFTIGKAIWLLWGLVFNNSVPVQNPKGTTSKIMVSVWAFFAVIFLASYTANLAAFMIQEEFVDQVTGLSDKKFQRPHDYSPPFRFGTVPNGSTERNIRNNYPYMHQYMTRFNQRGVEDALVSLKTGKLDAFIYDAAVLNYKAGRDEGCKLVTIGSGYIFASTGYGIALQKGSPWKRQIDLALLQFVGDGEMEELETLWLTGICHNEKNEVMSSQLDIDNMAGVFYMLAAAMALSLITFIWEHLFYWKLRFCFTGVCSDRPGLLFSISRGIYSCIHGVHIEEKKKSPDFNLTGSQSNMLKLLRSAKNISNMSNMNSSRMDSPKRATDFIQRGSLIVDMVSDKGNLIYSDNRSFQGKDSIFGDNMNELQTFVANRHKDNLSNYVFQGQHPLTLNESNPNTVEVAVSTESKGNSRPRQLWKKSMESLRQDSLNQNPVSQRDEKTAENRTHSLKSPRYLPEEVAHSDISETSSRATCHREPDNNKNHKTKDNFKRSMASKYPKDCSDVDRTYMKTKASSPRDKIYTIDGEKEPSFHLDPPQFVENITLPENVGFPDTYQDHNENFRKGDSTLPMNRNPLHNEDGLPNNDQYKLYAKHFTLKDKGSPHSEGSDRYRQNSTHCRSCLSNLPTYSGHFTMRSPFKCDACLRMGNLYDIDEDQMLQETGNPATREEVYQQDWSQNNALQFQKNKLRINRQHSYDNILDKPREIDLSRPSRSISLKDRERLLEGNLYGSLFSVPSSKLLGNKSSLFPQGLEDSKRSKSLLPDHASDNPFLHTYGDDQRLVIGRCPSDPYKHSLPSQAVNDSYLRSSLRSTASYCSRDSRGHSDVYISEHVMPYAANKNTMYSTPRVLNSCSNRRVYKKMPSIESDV
SMILES,IC50 [1] [µM],IC50 [2] [µM],IC50 [3] [µM]
c1ccc(CCCCNCCc2ccccc2)cc1,46,3.5,36
c1ccc(CCCNCCc2ccccc2)cc1,> 100,7.3,> 100
C[C@H](CCc1ccccc1)N[C@H](C)[C@@H](O)c1ccc(O)cc1,–,0.18,42
Oc1ccc(CCN2CCC(Cc3ccccc3)CC2)cc1,57,0.2,> 100
c1ccc(CCN2CCC(Cc3ccccc3)CC2)cc1,> 100,1.1,> 100

# Results, then the compound that gave them:
IC50 [1] [µM],IC50 [2] [µM],IC50 [3] [µM],SMILES
15,0.043,65,Oc1ccc(CCNCCCCc2ccccc2)cc1
> 100,3.7,> 100,Oc1ccc(CCOCCCCc2ccccc2)cc1
12,0.008,39,Oc1ccc(CCNCCCCCc2ccccc2)cc1
27,0.3,88,CCN(CCCCc1ccccc1)CCc1ccc(O)cc1
26,0.096,> 100,Oc1ccc(CCNCCCc2ccccc2)cc1
18,0.045,39,Oc1ccc(CCCNCCCCCc2ccccc2)cc1
17,0.035,30,Oc1ccc(CCNCCCCCCc2ccccc2)cc1
18,0.015,48,Oc1ccc(CCCNCCCCc2ccccc2)cc1
